Tests used:
nasal airways = assay: Intranasal AAV9 regulatable ffLuc expression in mice after rapamycin induction (IVIS imaging); format: in vivo, C57BL/6 mice
Experimental: AAV2/9.Z12i.ffLuc and AAV2/9.CMV.Tf were used in this example. These vectors were prepared as described in S J Chen et al, Hu Gene Therapy, 24: 270-278 (August 2013). AAV2/9.Z12i.ffLuc contains:
C57BL/6 mice (6 to 8 weeks of age) were purchased from Charles River Laboratories (Wilmington, Mass.) and kept under pathogen-free conditions at the Animal Facility of the Translational Research Laboratories. Mice were anesthetized using an intraperitoneal (IP) injection of ketamine/xylazine. For vector administrations, mice were inoculated intranasally (IN) with […] in the right and left nostril for a total dose of 10^11 genome copies (GC) in 25 μL. All animal procedures were approved by the Institutional Animal Care and Use Committees of the University of Pennsylvania.
Topical (IN) application: mice were anaesthetized with ketamine/xylazine and 5 mins later 5 μL of rapamycin solution for a total dose of 10 mg/kg was delivered to the right and left nostril IN. Systemic (IP) application: mice were physically restrained and injected IP with 50 μL of a 1 mg/mL rapamycin solution.
Mice were anaesthetized with ketamine/xylazine and 5 mins later 10 μL of 15 mg/ml D-luciferin (Caliper, USA) was delivered to the right and left nostril IN. Five mins later mice were imaged using the IVIS® Xenogen imaging system [Perkin-Elmer]. Quantitation of signal was calculated using the Living Image® 3.0 Software.
The level of gene expression achieved in the nasal airways following rapamycin induction was examined. Briefly, C57B1/6 mice (n=5/group) were dosed with 10^11 GC of both AAV2/9.Z12i.ffLuc and AAV2/9.CMV.Tf in a volume of 25 μL (12.5 μL per nostril). As negative controls, groups of mice were dosed with a) AAV2/9.Z12i.ffLuc alone, b) AAV2/9.CMV.Tf alone and c) PBS mice. As a positive control for the maximal expression of ffLuc, mice (n=5) were injected with AAV2/9.CMV.ffluc. To maximize the safety of the inducible vector system we opted to restrict expression to the nasal epithelium by delivering rapamycin topically (directly to the nose) or systemically (IP).

NHP eyes = assay: Subretinal AAV8 regulatable antibody expression in NHP eyes (ELISA); format: in vivo, Macaca mulatta (rhesus monkeys); settings: rapamycin IV
Experimental: For this experiment a 3 year old male Macaca mulatta (rhesus monkeys) was purchased from Covance Research Products, Inc.
For subretinal (SR) vector injections, a needle was inserted through a sclerotomy 2 mm posterior to the limbus at the 2 or 10 o'clock position. It was then advanced through the vitreous to penetrate the retina in the posterior pole. Under microscopic control, up to 100 μL of anterior chamber fluid was removed and 150 μL of viral vector solution diluted in phosphate buffered saline (PBS) was injected into the subretinal space, thereby raising a dome-shaped retinal detachment (bleb). The detachment covered a small fraction (approximately ⅛th) of the area of the retina in the macula. The NHP received AAV8 vectors injected subretinally into the left (OS) and right (OD) eyes. The two vectors that were injected were: AAV2/8.CMV.TF1Nc (alternate name for AAV2/8.CMV.TF) and AAV2/8.Z12i.AbH.FF2A.AbL.BGH. The vectors were mixed at 1:1 ratio at 10^11 GC and delivered SR in a total volume of 150 μL.
Macaques were induced at various times following the SR vector injection. Rapamycin (2 mg/kg) was delivered IV in a solution of 1.2% Tween 80, 27.1% Polyethylene Glycol, 71.7% Nuclease Free Water. At designated times post vector delivery, a tap was performed on the OD eye (baseline) and the NHP then injected IV with 2 mg/kg rapamycin. […]

[1] = tested on: Z12i promoter ffLuc reporter in HEK293 cells; assay: ffLuc reporter induction under Z12i promoter in transfected HEK293 cells; format: cell-based; settings: TF cis-plasmids plus Z12i-ffLuc reporter, rapamycin versus rapalog, all TF systems tested
Experimental: Cis plasmid constructs having the following elements, from 5′ to 3′ were constructed: promoter, nuclear localization signal (NLS), FRAPL (lipid kinase homolog having rapamycin binding domain), p65 of human NF-κB (transcriptional activation domain), IRES, zinc finger (DNA binding domain), 2 or 3 copies of FK506 binding protein as shown below, and a poly A.
These cis plasmids were tested for in HEK293 cells for the ability to induce expression of ffLuc reporter gene under the control of Z12i promoter, consisting of 12 ZFHD binding sites followed by minimal IL2 promoter. Briefly, HEK293 cells were transfected with cis-plasmids along with the reporter constructs. 24-72 hours post transfection, cells were treated with various concentrations of either rapamycin (sirolimus) or rapalog AP22594 as indicated in FIG. 5. Expression of ffLuc was assessed using dual luciferase detection kit from Promega according to manufacturer's instructions. […] Antibodies normally are secreted into supernatant buy the transfected cells. In this experiment, transfection was performed using lipofectamine according to the manufacturer's instructions, and induction was carried out the next day after transfection using indicated amounts of rapalog. At 72 hours post transfection, supernatants were harvested and expression of anti-SIV antibody was assessed using antigen specific ELISA or protein A ELISA. […]

[2] = IM AAV8 Z12i-immunoadhesin plus TF vectors in RAG KO mice, AP22594 induction, protein A ELISA; format: in vivo; settings: post AAV8 administration
Experimental: RAG KO mice were purchased from Jackson labs. Z12i-2014A and TF plasmids were packaged into AAV8 vectors using triple transfection method. Vectors were titered using qPCR. […] First induction with AP22594 was carried out on day 13 after AAV8 administration. AP22594 was administered IP at a dose of 1 mg/kg. On day 21 post AAV8 administration, orbital bleeds were collected and the level of circulating 2011A antibody was measured by protein A ELISA. The data is presented on FIG. 8.

[3] = stated as consistent with the time frame of decline; cited from earlier work
[4] = three separate IN rapamycin inductions over three months

CO[C@H]1C[C@@H]2CC[C@@H](C)[C@@](O)(O2)C(=O)C(=O)N2CCCC[C@H]2C(=O)O[C@H]([C@H](C)C[C@@H]2CC[C@@H](O)[C@H](OC)C2)CC(=O)[C@H](C)/C=C(\C)[C@@H](O)[C@@H](OC)C(=O)[C@H](C)C[C@H](C)/C=C/C=C/C=C/1C [rapamycin]
time for ffLuc expression to reach background levels (nasal airways; IN or IP rapamycin induction): ≤ 7 days
time until which ffLuc expression remained stable (nasal airways; IN or IP rapamycin induction): 48 h
time to maximal ffLuc expression after induction (nasal airways; IN or IP rapamycin induction, AAV2/9.Z12i.ffLuc plus AAV2/9.CMV.Tf IN): ≤ 24 h
signs of behavioral distress (nasal airways; rapamycin delivered to the nose or systemically): did not exhibit any signs of behavioral distress
time at which expression began to decline (nasal airways; [4]): 72 h
time to maximal induction (nasal airways; [4]): ≤ 24 h
time to which induction was stable (nasal airways; [4]): 48 h
time to wane to background undetectable levels (NHP eyes): ≤ 3 months
peak of antibody expression post induction (NHP eyes; several inductions over 4 years): 14 days

COC1CC2CCC(C)C(O)(O2)C(=O)C(=O)N2CCCCC2C(=O)OC(C(C)CC2CCC(O)C(OC)C2)CC(=O)C(C)C=C(C)C(O)C(OC)C(=O)C(C)CC(C)C=CC=CC=C1C (stereo not drawn) [AP22594, 28-epi-rapamycin]
induction of transgene (ffLuc) expression [1]: comparable levels of induction of transgene expression
day induced expression returned to barely detectable [2]: 49 days
day induced expression started to decline [2]: 35 days
day of peak induced expression ([2]; data not shown): 28 days

B1: 2011A antibody: immunoadhesin expressed from the Z12i construct in AAV8 (protein)
chain: EVQLLESGPGLVKPSETLSLTCAVSGLSISSDFSWAWIRQTPGKALEYVGYIRGNTGDTYYNPSLKSRLTISKDTSKNQIYLNLSSVTAGDAAVYYCARDRVCDDDYGYYYTEVCFGLDSWGQGIVVTVSSGGGGSGGGGSGGGGSAELVMTQSPLSLSVAPGQTASISCRSSQSLDYANGNTYLSWFHQRPGQPPRRLIYQISNRDSGVPDRFSGSGAGTEFTLRISRMESDDVGIYYCGQGTTFPRTFGQGTKVEIKTCGGGSKPPTCPPCTSPELLGGPSVFLFPPKPKDTLMISRTPEVTCVVVDVSQEDPDVKFNWYVNGAEVHHAQTKPRETQYNSTYRVVSVLTVTHQDWLNGKEYTCKVSNKALPAPIQKTISKDKGQPREPQVYTLPPSREELTKNQVSLTCLVKGFYPSDIVVEWESSGQPENTYKTTPPVLDSDGSYFLYSKLTVDKSRWQQGNVFSCSVMHEALHNHYTQKSLSLSPGK
antibody half-life [3]: 1-2 weeks

— patent publication US20190002915A1, “COMPOSITIONS AND METHODS FOR REGULATABLE ANTIBODY EXPRESSION” (The Trustees of the University of Pennsylvania, priority 2015, published 2019)
